From ChEMBL document CHEMBL5518159, “Thiazole-based analogues as potential antibacterial agents against methicillin-resistant Staphylococcus aureus (MRSA) and their SAR elucidation” (Eur J Med Chem, 2023)
Converted amounts (≈) assume the structure as drawn.

Key:
Staphylococcus aureus [1] = test: Antibacterial activity against […] Staphylococcus aureus ATCC 25923 assessed as reduction in bacterial growth incubated for 24 hrs by micro-broth dilution method; format: functional
DNA gyrase [2] = biological target: DNA gyrase (Staphylococcus aureus, UniProt P0A0K8+P20831); test: Inhibition of Staphylococcus aureus DNA gyrase; format: protein-complex assay
Chain of DNA gyrase (Staphylococcus aureus, UniProt P0A0K8+P20831) (P0A0K8 whole entry): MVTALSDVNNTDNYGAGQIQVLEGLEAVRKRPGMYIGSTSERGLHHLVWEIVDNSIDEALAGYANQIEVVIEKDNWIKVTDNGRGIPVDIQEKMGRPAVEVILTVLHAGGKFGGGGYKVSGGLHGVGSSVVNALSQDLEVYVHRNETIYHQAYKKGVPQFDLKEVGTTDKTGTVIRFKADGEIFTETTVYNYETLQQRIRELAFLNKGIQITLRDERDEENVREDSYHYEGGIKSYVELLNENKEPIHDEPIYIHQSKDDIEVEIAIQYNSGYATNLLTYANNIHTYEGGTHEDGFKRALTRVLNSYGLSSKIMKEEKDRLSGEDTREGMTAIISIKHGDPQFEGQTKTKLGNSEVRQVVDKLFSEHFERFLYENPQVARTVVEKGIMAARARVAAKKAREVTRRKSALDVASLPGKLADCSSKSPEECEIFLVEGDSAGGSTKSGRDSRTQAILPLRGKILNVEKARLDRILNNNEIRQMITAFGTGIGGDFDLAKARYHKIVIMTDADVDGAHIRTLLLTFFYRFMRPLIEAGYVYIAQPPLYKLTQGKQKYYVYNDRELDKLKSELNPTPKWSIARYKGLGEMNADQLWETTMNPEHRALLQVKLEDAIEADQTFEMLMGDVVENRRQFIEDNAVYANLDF
Chain of DNA gyrase (Staphylococcus aureus, UniProt P0A0K8+P20831) (P20831 whole entry): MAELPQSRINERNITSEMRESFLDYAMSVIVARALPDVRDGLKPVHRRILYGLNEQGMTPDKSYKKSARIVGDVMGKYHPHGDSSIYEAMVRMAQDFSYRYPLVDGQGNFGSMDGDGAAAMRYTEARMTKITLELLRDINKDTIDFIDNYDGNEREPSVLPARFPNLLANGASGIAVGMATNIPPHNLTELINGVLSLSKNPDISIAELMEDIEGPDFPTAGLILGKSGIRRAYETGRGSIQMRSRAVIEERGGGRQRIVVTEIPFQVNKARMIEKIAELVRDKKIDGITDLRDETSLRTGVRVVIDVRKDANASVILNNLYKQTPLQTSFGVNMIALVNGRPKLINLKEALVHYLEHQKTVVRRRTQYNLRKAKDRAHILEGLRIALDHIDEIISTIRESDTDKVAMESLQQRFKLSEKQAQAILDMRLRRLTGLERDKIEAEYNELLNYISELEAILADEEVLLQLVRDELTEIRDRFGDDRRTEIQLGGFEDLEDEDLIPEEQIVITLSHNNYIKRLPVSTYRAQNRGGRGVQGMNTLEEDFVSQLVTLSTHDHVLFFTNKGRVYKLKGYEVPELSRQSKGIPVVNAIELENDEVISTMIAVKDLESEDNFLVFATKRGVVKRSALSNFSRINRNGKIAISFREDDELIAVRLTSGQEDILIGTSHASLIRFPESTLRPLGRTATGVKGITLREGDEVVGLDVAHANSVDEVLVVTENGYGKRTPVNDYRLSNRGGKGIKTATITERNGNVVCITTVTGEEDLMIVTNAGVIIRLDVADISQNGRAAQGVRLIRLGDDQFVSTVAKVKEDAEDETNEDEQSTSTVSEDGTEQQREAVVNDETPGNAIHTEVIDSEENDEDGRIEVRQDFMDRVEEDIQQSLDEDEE

DNA gyrase [3] = biological target: DNA gyrase (Escherichia coli, UniProt P0AES4+P0AES6); test: Inhibition of Escherichia coli DNA gyrase assessed as reduction in enzyme-mediated supercoiling of relaxed plasmid by fluorescence polarization assay; format: protein-complex assay
Staphylococcus aureus [4] = test: Antibacterial activity against Staphylococcus aureus assessed as reduction in bacterial growth by CLSI based two-fold microdilution method; format: functional
Staphylococcus aureus [5] = test: Antibacterial activity against […] Staphylococcus aureus ATCC 6538 assessed as reduction in bacterial growth incubated for 18 hrs by CLSI based broth-dilution method; format: functional
Staphylococcus aureus [6] = test: Antibacterial activity against methicillin-resistant Staphylococcus aureus assessed as reduction in microbial growth measured for 24 hrs by CLSI based broth microdilution method; format: functional
Staphylococcus aureus [7] = test: Antibacterial activity against […] Staphylococcus aureus ATCC 6538 assessed as microbial growth inhibition incubated for 24 hrs by broth micro-dilution analysis; format: functional

COC(=O)CC(=O)Nc1nc2c(s1)C[C@@H](NC(=O)c1[nH]c(C)c(Br)c1Cl)CC2
MIC (Staphylococcus aureus [1]): 8 µg/mL (≈ 16.3 µM)
IC50 (DNA gyrase [2]): 3700 nM
IC50 (DNA gyrase [3]): 56 nM

C=C(C)[C@@H]1CC=C2c3sc(-c4cc(O)cc(O)c4)nc3C[C@@H](C)[C@]2(C)C1
MIC (Staphylococcus aureus [4]): 3.12 µg/mL (≈ 8.49 µM)

O=C(O)c1cccc(N2C(=O)/C(=C/c3c[nH]c4ccccc34)SC2=S)c1
MIC (Staphylococcus aureus [5]): 12 µg/mL (≈ 31.5 µM)

NC(=S)N/N=C/C1=CC(c2ccc([N+](=O)[O-])cc2[N+](=O)[O-])C=C1c1ccc(Cl)cc1Cl (configuration not stated)
MBC (Staphylococcus aureus [6]): 38 µg/mL

CCCC(C(=O)O)N1C(=O)/C(=C/c2c[nH]c3ccccc23)SC1=S (configuration not stated)
MIC (Staphylococcus aureus [7]): 250 µg/mL (≈ 694 µM)
